Bridges are numbered along the chain shown (N, C = ends).
What was measured:
[1] = tested on: Omicron XBB.1.5 spike; format: cell-based, SARS-CoV-2
[2] = tested on: SARS-CoV-2 Omicron BA.1 variant; conditions: 48 h

## VAACNLPIVRGPCRAFIQLWAFDAVKGKCVLFPYGGCQGNGNKFYSEKECREYCGVPGDGD (disulfide 4-54, 13-37, 29-50) [Trypstatin]
[1]
  activity against Omicron XBB.1.5 variant in a pseudoparticle assay: verified activity
[2]
  IC50: 120 nM
